The term melting point denotes the temperature, or range, at which the solid turns liquid.

Like-named read-outs stand apart in the source and are kept apart here.

In one series the target is cdk4/D (Homo sapiens, UniProt P11802). Briefly: Cyclin-Dependent Kinase 4 (cdk4) Assay. In kind it is biochemical.
The target in another series is Cdk5/p25 (Homo sapiens, UniProt Q00535). Description: Cyclin-Dependent Kinase 5 (cdk5) Assay. In kind it is biochemical. The protocol: Cyclin-Dependent Kinase 5 (cdk5) Assay
Enzyme assays for IC50 determinations and kinetic evaluation were performed in 96-well filter plates (Millipore MAPH NOB 10). […] All components except histone and ATP were added to wells, and the plate was placed on a shaker for 5 minutes. The reaction was started by adding histone and [^32P]ATP, and the plate was shaken at 30° C. for 45 minutes. The reaction was terminated by addition of 0.1 mL of 150 mM phosphoric acid. The plate was kept at 4° C. for 30 minutes to allow substrate to precipitate. The wells were then washed three times with 0.2 mL of 75 mM phosphoric acid and ^32P incorporation was determined with a beta plate counter (Wallac Inc, Gaithersburg, Md.).

Another series concerns the target cdk2/cyclinE (Homo sapiens, UniProt P24941). Description: Cyclin-Dependent Kinase Assay cdk2/cyclinE.
The target in the next series is cdk2/cyclinA (Homo sapiens, UniProt P24941). Description: Cyclin-Dependent Kinase Assay cdk2/cyclinA.
The target in another series is cdc2/cyclinB (Homo sapiens, UniProt P06493). Description: Cyclin-Dependent Kinase Assay cdc2/cyclinB.
cdc2/cyclinB, sequence (P06493 whole entry): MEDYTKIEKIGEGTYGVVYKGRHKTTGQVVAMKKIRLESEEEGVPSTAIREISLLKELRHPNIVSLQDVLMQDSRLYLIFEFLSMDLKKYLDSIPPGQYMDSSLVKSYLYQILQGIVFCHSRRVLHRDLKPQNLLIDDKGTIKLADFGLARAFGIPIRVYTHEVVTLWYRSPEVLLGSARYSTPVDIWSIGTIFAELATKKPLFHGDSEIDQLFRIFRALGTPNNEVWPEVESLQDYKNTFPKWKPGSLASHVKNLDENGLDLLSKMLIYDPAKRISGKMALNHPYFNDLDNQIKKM
cdc2/cyclinB, sequence (P14635 whole entry, further chain): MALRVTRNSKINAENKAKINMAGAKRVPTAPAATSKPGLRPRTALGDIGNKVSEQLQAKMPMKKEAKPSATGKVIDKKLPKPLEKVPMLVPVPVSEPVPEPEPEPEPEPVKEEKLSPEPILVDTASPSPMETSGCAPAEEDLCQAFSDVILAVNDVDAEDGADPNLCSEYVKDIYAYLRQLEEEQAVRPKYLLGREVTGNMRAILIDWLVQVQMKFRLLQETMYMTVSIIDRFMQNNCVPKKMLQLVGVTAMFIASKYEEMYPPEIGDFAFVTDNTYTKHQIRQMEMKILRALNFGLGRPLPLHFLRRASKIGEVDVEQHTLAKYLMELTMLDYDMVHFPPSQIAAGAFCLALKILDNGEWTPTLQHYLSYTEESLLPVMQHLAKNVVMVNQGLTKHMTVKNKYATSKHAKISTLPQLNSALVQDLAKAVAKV

cdk4/D, sequence (P11802 whole entry): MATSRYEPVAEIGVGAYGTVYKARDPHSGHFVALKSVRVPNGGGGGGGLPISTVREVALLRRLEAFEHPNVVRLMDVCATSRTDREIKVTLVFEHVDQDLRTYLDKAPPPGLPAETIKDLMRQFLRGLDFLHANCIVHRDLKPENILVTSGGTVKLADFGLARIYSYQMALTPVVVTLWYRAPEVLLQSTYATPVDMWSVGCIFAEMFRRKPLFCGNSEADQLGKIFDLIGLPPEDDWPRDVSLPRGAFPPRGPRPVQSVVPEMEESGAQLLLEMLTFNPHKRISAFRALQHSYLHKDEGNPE
cdk4/D, sequence (P24385 whole entry, further chain): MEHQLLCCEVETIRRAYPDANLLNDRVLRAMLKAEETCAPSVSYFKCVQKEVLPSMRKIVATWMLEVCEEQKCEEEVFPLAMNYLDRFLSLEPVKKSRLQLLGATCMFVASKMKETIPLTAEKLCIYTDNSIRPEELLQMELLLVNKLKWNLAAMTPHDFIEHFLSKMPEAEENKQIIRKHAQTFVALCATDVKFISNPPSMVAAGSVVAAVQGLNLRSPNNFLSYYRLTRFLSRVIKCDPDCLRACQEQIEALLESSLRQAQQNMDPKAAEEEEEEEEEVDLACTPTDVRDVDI

As to `O=c1ccc2cnc(Nc3ccccc3)nc2n1Cc1ccccc1` [Example 35, 8-Benzyl-2-phenylamino-8H-pyrido[2,3-d]pyrimidin-7-one], the melting point lay within 215 to 216 °C. In addition, at cdk4/D (Table 1, read-out: cdk4/D IC50), the IC50 worked out at 940 nM. For the same compound, the IC50 against Cdk5/p25 (Table 1) is 310 nM. The IC50 against cdk2/cyclinE (cdk2/E IC50, Table 1) worked out at 33800 nM.

`Cn1c(=O)ccc2cnc(Nc3ccccc3)nc21` [Example 61, 8-Methyl-2-phenylamino-8H-pyrido[2,3-d]pyrimidin-7-one] showed a melting point of 244 to 247 °C. Further, the IC50 on cdk4/D (Table 3, read-out: Cdk4 IC50) stood at 5480 nM. The IC50 against Cdk5/p25 (Table 3) was 89 nM. In addition, the IC50 at cdk2/cyclinE (Cdk2/E IC50, Table 3) came out at 1680 nM. The compound further yielded an IC50 at cdk2/cyclinA (Cdk2/A IC50, Table 3) of 1150 nM.

In the case of `CCn1c(=O)ccc2cnc(Nc3ccc(F)cc3)nc21` [Example 88, 8-Ethyl-2-(4-fluorophenylamino)-8H-pyrido[2,3-d]pyrimidin-7-one], the melting point lay in the range of 215 to 217 °C. Also, the IC50 at cdk4/D (Table 3, read-out: Cdk4 IC50) is 1240 nM. The compound also displayed an IC50 on Cdk5/p25 (Table 1) of 53 nM. This compound had an IC50 at Cdk5/p25 (Table 3) of 32 nM. For the same compound, on cdk2/cyclinE (Cdk2/E IC50, Table 3), the IC50 came to 560 nM. At cdk2/cyclinA (Cdk2/A IC50, Table 3), this compound had an IC50 of 421 nM.

On to `CN1CCN(c2ccc(Nc3ncc4ccc(=O)n(CCOCc5ccccc5)c4n3)cc2)CC1` [Example 140], for which the melting point lay within 183 to 191 °C. At Cdk5/p25 (Table 1), this compound gave an IC50 of 5170 nM. For the same compound, at cdk2/cyclinE (cdk2/E IC50, Table 1), the IC50 amounted to 23600 nM. The compound also had an IC50 against cdk2/cyclinA (cdk2/A IC50, Table 1) of 13400 nM.

Consider `O=c1ccc2cnc(Nc3ccc(-n4cccc4)cc3)nc2n1C1CCCC1` [Example 190, 8-Cyclopentyl-2-(4-pyrrol-1-yl-phenylamino)-8H-pyrido[2,3-d]pyrimidin-7-one], for which the melting point was 189 to 190 °C. Also, the IC50 at cdk4/D (Table 1, read-out: cdk4/D IC50) is 136 nM. In addition, the IC50 at Cdk5/p25 (Table 1) is 31.2 nM. In addition, the IC50 against cdk2/cyclinE (cdk2/E IC50, Table 1) was 120 nM.

In the case of `O=c1ccc2cnc(Nc3ccc(N4CCC(CCO)CC4)cc3)nc2n1C1CCCC1` [Example 196], the melting point was 199 to 200 °C. For the same compound, at cdk4/D (Table 1, read-out: cdk4/D IC50), the IC50 was found to be 17 nM. The compound further came in with an IC50 on Cdk5/p25 (Table 1) of 124 nM. This compound also came in with an IC50 against cdk2/cyclinE (cdk2/E IC50, Table 1) of 47 nM.

For the compound `O=c1ccc2cnc(Nc3ccc(N4CCC(CCCO)CC4)cc3)nc2n1C1CCCC1` [Example 197, 8-Cyclopentyl-2-{4-[4-(3-hydroxy-propyl)-piperidin-1-yl]-phenylamino]-8H-pyrido[2,3-d]pyrimidin-7-one], the melting point was in the range of 208 to 209 °C. Moreover, on cdk4/D (Table 1, read-out: cdk4/D IC50), the IC50 came out at 33.5 nM. On Cdk5/p25 (Table 1), this compound had an IC50 of 127 nM. The same compound returned an IC50 on cdk2/cyclinE (cdk2/E IC50, Table 1) of 2320 nM. The compound further came in with an IC50 at cdc2/cyclinB of 7390 nM.

For `O=c1ccc2cnc(Nc3ccc(N4CCC(O)CC4)cc3)nc2n1C1CCCC1` [Example 198, 8-Cyclopentyl-2-[4-(4-hydroxy-piperidin-1-yl)-phenylamino]-8H-pyrido[2,3-d]pyrimidin-7-one], the melting point fell in the range of 216 to 217 °C. Moreover, the IC50 on cdk4/D (Table 1, read-out: cdk4/D IC50) was 15 nM. At Cdk5/p25 (Table 1), this compound registered an IC50 of 19 nM. This compound registered an IC50 against cdk2/cyclinE (cdk2/E IC50, Table 1) of 44 nM. Also, the IC50 on cdc2/cyclinB was found to be 118 nM.

`O=c1ccc2cnc(Nc3cccc(N4CCCCC4)c3)nc2n1C1CCCC1` [Example 202, 8-Cyclopentyl-2-(3-piperidin-1-yl-phenylamino)-8H-pyrido[2,3-d]pyrimidin-7-one] showed a melting point of 90 to 91 °C. Besides, the IC50 at cdk4/D (Table 1, read-out: cdk4/D IC50) was 655 nM. Further, the IC50 against Cdk5/p25 (Table 1) came out at 77.9 nM.

For the compound `O=c1ccc2cnc(Nc3cccc(N4CCCCC4)c3)nc2n1C1CCCCC1` [Example 203, 8-Cyclohexyl-2-(3-piperidin-1-yl-phenylamino)-8H-pyrido[2,3-d]pyrimidin-7-one], the melting point lay within 164 to 165 °C. Besides, at cdk4/D (Table 1, read-out: cdk4/D IC50), the IC50 is 500 nM. The compound also returned an IC50 at Cdk5/p25 (Table 1) of 82.6 nM.

The compound `O=c1ccc2cnc(Nc3ccc(-c4ccccc4)cc3)nc2n1C1CC2CCC1C2` (centres unmarked) [Example 223, 8-Bicyclo[2.2.1]hept-2-yl-2-(biphenyl-4-ylamino)-8H-pyrido[2,3-d]pyrimidin-7-one] came in with a melting point of 255 to 257 °C. This compound returned an IC50 at Cdk5/p25 (Table 1) of 587 nM. The same compound displayed an IC50 against cdk2/cyclinE (cdk2/E IC50, Table 1) of 1950 nM. At cdk2/cyclinA (cdk2/A IC50, Table 1), this compound registered an IC50 of 18000 nM.

The record behind these values is patent US20040224958A1, “Pyridopyrimidinone derivatives for treatment of neurodegenerative disease” (priority 2000, published 2004).
